In the NIST ThermoML archive (doi:10.1021/acs.jced.6b00526):

Assay: refractive index (Na D-line) (dimensionless); xn = mol fraction of the nth substance listed
Conditions: 100 kPa, Liquid, Standard Abbe refractometry

OCCO [1,2-ethanediol] + O
refractive index
Conditions	x2 = 0	x2 = 0.1593	x2 = 0.2669	x2 = 0.3496	x2 = 0.4449	x2 = 0.5563	x2 = 0.6518	x2 = 0.7482	x2 = 0.8444
288.15 K	1.432	1.4278	1.4239	1.4202	1.4152	1.408	1.3996	1.3881	1.3724
293.15 K	1.4306	1.4263	1.4225	1.4188	1.4138	1.4067	1.3984	1.387	1.3714
298.15 K	1.4294	1.4251	1.4212	1.4176	1.4126	1.4055	1.3973	1.386	1.3705
303.15 K	1.4282	1.4239	1.42	1.4163	1.4114	1.4043	1.3961	1.3849	1.3696
308.15 K	1.4269	1.4225	1.4187	1.415	1.4102	1.4031	1.3949	1.3838	1.3687
313.15 K	1.4257	1.4213	1.4174	1.4138	1.409	1.4019	1.3938	1.3827	1.3677
318.15 K	1.4244	1.42	1.4161	1.4125	1.4077	1.4006	1.3926	1.3816	1.3668

OCCCCO [1,4-butanediol] + O
refractive index
Conditions	x2 = 0	x2 = 0.152	x2 = 0.2513	x2 = 0.3534	x2 = 0.4482	x2 = 0.5515	x2 = 0.6527	x2 = 0.7501	x2 = 0.8492	x2 = 0.9488
288.15 K	1.447	1.4441	1.4413	1.4376	1.4332	1.4277	1.4203	1.4097	1.3913	1.3596
293.15 K	1.4455	1.4425	1.4397	1.436	1.4317	1.4262	1.4188	1.4082	1.39	1.3586
298.15 K	1.4441	1.4411	1.4383	1.4346	1.4304	1.4247	1.4174	1.4069	1.3888	1.3577
303.15 K	1.4426	1.4395	1.4368	1.4331	1.4289	1.4232	1.416	1.4056	1.3876	1.3569
308.15 K	1.4412	1.4381	1.4353	1.4316	1.4274	1.4219	1.4147	1.4044	1.3865	1.356
313.15 K	1.4398	1.4367	1.4339	1.4302	1.426	1.4205	1.4134	1.4031	1.3853	1.3552
318.15 K	1.4384	1.4352	1.4324	1.4288	1.4246	1.4191	1.412	1.4018	1.3842	1.3543
